Like-named read-outs stand apart in the source and are kept apart here.
What was measured:
HT-29 cells = test: AlamarBlue cell viability assay, HT-29 colon cancer cells; type: cell-based; conditions: Homo sapiens, 48 h with compound, ^BP = curve baseline plateaued between ~10-20%
[1] = AlamarBlue cell viability assay, non-cancerous intestine FHs-74Int cells; conditions: human
[2] = AlamarBlue cell viability assay, non-cancerous colon FHC cells; conditions: human
DLD-1 cells = test: AlamarBlue cell viability assay, DLD-1 colon cancer cells; type: cell-based; conditions: Homo sapiens, 48 h with compound, ^BP = curve baseline plateaued between ~10-20%, read-out: Human Cell Viability EC50 Colon Cancer (DLD1)
HCT-116 cells = test: AlamarBlue cell viability assay, HCT-116 colon cancer cells; type: cell-based, human; conditions: for Average Selectivity Index: CC50 non-cancer cells (FHC, FHs 74Int) compared to EC50 HCT-116; for EC50: AlamarBlue, 48 h with compound, read-out: Human Cell Viability EC50 Colon Cancer (HCT 116)
[3] = FHs-74Int non-cancerous intestine cells, Human Cell Viability CC50 Intestine (FHs 74Int), non-cancerous intestine cells, AlamarBlue, 48 h
[4] = FHC non-cancerous colon cells, Human Cell Viability CC50 Colon (FHC), non-cancerous colon cells, AlamarBlue, 48 h

SMILES: CCOc1ccc(S(=O)(=O)Nc2ccc(C(=O)N/N=C/c3ccc([N+](=O)[O-])o3)cc2)cc1 [Compound 132, 4-ethoxy-N-(4-(2-((5-nitrofuran-2-yl)methylene)hydrazine-1-carbonyl)phenyl)benzenesulfonamide]
- EC50 (HT-29 cells): 2.3 µM
- CC50 at 48 h [1, 3]: > 100 µM
- CC50 at 48 h [2, 4]: 89 µM
- EC50 (DLD-1 cells): 18 µM
- Average Selectivity Index (HCT-116 cells): 52.0
- EC50 (HCT-116 cells; Homo sapiens, HCT-116, 48 h): 1.8 µM

SMILES: O=Cc1ccc([N+](=O)[O-])o1 [Compound 160]
- CC50 at 48 h [1, 3]: 53 µM
- CC50 at 48 h [2, 4]: 53 µM
- Average Selectivity Index (HCT-116 cells): 1.9
- EC50 (HCT-116 cells; Homo sapiens, HCT-116, 48 h): 29 µM

SMILES: O=C(N/N=C/c1ccc([N+](=O)[O-])o1)c1ccc(Cl)s1 [Compound 121]
- EC50 (HT-29 cells): 5.7 µM
- CC50 at 48 h [1, 3]: 49 µM
- CC50 at 48 h [2, 4]: 51 µM
- EC50 (DLD-1 cells): 8 µM
- Average Selectivity Index (HCT-116 cells): 6.2
- EC50 (HCT-116 cells; Homo sapiens, HCT-116, 48 h): 8.2 µM

SMILES: O=C(N/N=C/c1ccc(O)c2ncccc12)c1cccs1 [Compound 135]
- EC50 (HT-29 cells): 3.6 µM
- CC50 at 48 h [1, 3]: 86 µM
- CC50 at 48 h [2, 4]: 85 µM
- EC50 (DLD-1 cells): 2.3 µM
- Average Selectivity Index (HCT-116 cells): 27
- EC50 (HCT-116 cells; Homo sapiens, HCT-116, 48 h): 3.2 µM

SMILES: O=C(N/N=C/c1ccc([N+](=O)[O-])o1)c1cccs1 [Compound 120]
- EC50 (HT-29 cells): 3.6 µM
- CC50 at 48 h [1, 3]: 50 µM
- CC50 at 48 h [2, 4]: 84 µM
- EC50 (DLD-1 cells): 14 µM
- Average Selectivity Index (HCT-116 cells): 7.4
- EC50 (HCT-116 cells; Homo sapiens, HCT-116, 48 h): 9.1 µM

SMILES: CC[n+]1c(-c2ccccc2)c2cc(N)ccc2c2ccc(N)cc21 [Compound 73, Ethidium bromide, reference compound]
- CC50 at 48 h [1]: > 100 µM
- CC50 at 48 h [2]: > 100 µM

SMILES: O=C(N/N=C/c1ccc(O)c2ncccc12)c1ccc(NS(=O)(=O)c2cccs2)cc1 [Compound 145]
- EC50 (HT-29 cells): 2.9 µM
- CC50 at 48 h [1, 3]: 6.1 µM
- CC50 at 48 h [2, 4]: 24 µM
- EC50 (DLD-1 cells): 5.7 µM
- Average Selectivity Index (HCT-116 cells): 6.2
- EC50 (HCT-116 cells; Homo sapiens, HCT-116, 48 h): 2.4 µM

SMILES: O=C(N/N=C/c1ccc(O)c2ncccc12)c1ccc(Cl)s1 [Compound 136]
- EC50 (HT-29 cells): 3.2 µM
- CC50 at 48 h [1, 3]: 42 µM
- CC50 at 48 h [2, 4]: 25 µM
- EC50 (DLD-1 cells): 3.9 µM
- Average Selectivity Index (HCT-116 cells): 8.8
- EC50 (HCT-116 cells; Homo sapiens, HCT-116, 48 h): 3.8 µM

SMILES: CCN(CC)S(=O)(=O)c1cccc(C(=O)N/N=C/c2ccc(O)c3ncccc23)c1 [Compound 144]
- EC50 (HT-29 cells): 4.4 µM
- CC50 at 48 h [1, 3]: 59 µM
- CC50 at 48 h [2, 4]: 34 µM
- EC50 (DLD-1 cells): 1.3 µM
- Average Selectivity Index (HCT-116 cells): 9.5
- EC50 (HCT-116 cells; Homo sapiens, HCT-116, 48 h): 4.9 µM

SMILES: O=C(N/N=C/c1ccc([N+](=O)[O-])o1)c1ccccc1 [Compound 122]
- EC50 (HT-29 cells): 4.9 µM
- CC50 at 48 h [1, 3]: 71 µM
- CC50 at 48 h [2, 4]: > 100 µM
- EC50 (DLD-1 cells): 18 µM
- Average Selectivity Index (HCT-116 cells): 6.5
- EC50 (HCT-116 cells; Homo sapiens, HCT-116, 48 h): 13 µM

SMILES: O=C(N/N=C/c1ccc(O)c2ncccc12)c1cccc2ccccc12 [Compound 141]
- EC50 (HT-29 cells): 1.5 µM
- CC50 at 48 h [1, 3]: 60 µM
- CC50 at 48 h [2, 4]: 46 µM
- EC50 (DLD-1 cells): 1.6 µM
- Average Selectivity Index (HCT-116 cells): 13
- EC50 (HCT-116 cells; Homo sapiens, HCT-116, 48 h): 4.1 µM

SMILES: CN(C)c1ccc(C(=O)N/N=C/c2ccc([N+](=O)[O-])o2)cc1 [Compound 125]
- EC50 (HT-29 cells): 0.29 µM
- CC50 at 48 h [1, 3]: > 100 µM
- CC50 at 48 h [2, 4]: > 100 µM
- EC50 (DLD-1 cells): > 100 µM
- Average Selectivity Index (HCT-116 cells): 11.8
- EC50 (HCT-116 cells; Homo sapiens, HCT-116, 48 h): 8.5 µM

SMILES: CC(C)n1c(/C=C/C(O)CC(O)CC(=O)O)c(-c2ccc(F)cc2)c2ccccc21 (centres unmarked) [Compound 82, Fluvastatin sodium, reference compound]
- CC50 at 48 h [1, 3]: > 100 µM
- CC50 at 48 h [2, 4]: > 100 µM
- Average Selectivity Index (HCT-116 cells): 11.6

SMILES: CC(=O)O[C@H]1C(=O)[C@@]2(C)[C@H]([C@H](OC(=O)c3ccccc3)[C@]3(O)C[C@H](OC(=O)[C@H](O)[C@@H](NC(=O)c4ccccc4)c4ccccc4)C(C)=C1C3(C)C)[C@]1(OC(C)=O)CO[C@@H]1C[C@@H]2O [Compound 70, Paclitaxel, reference compound]
- CC50 at 48 h [1, 3]: > 100 µM
- CC50 at 48 h [2, 4]: > 100 µM
- Average Selectivity Index (HCT-116 cells): 2222.2
- EC50 (HCT-116 cells; Homo sapiens, HCT-116, 48 h): < 0.045 µM

SMILES: O=C(N/N=C/c1ccc([N+](=O)[O-])o1)c1cccc2ccccc12 [Compound 126]
- EC50 (HT-29 cells): 4.4 µM
- CC50 at 48 h [1, 3]: 52 µM
- CC50 at 48 h [2, 4]: 58 µM
- EC50 (DLD-1 cells): 11 µM
- Average Selectivity Index (HCT-116 cells): 5.7
- EC50 (HCT-116 cells; Homo sapiens, HCT-116, 48 h): 9.6 µM

SMILES: O=C1CN(/N=C/c2ccc(O)c3ncccc23)C(=O)N1 [Compound 133]
- CC50 at 48 h [1, 3]: > 100 µM
- CC50 at 48 h [2, 4]: > 100 µM
- Average Selectivity Index (HCT-116 cells): 2.6
- EC50 (HCT-116 cells; Homo sapiens, HCT-116, 48 h): 39 µM

SMILES: O=C(N/N=C/c1ccc(O)c2ncccc12)c1ccccc1 [Compound 137]
- EC50 (HT-29 cells): 2.5 µM
- CC50 at 48 h [1, 3]: 57 µM
- CC50 at 48 h [2, 4]: 74 µM
- EC50 (DLD-1 cells): 2.8 µM
- Average Selectivity Index (HCT-116 cells): 11
- EC50 (HCT-116 cells; Homo sapiens, HCT-116, 48 h): 6.1 µM

SMILES: CN(C)c1ccc2nc3ccc(=[N+](C)C)cc-3sc2c1 [Compound 74, Methylene blue trihydrate, reference compound]
- CC50 at 48 h [1, 3]: 23.4 µM
- CC50 at 48 h [2, 4]: 31.3 µM
- EC50 (HCT-116 cells; trihydrate): 2.3 µM
- Average Selectivity Index (HCT-116 cells; trihydrate): 11.9
- EC50 (HCT-116 cells; Homo sapiens, HCT-116, 48 h): 2.3 to 11 µM

SMILES: COc1ccc(C(=O)NN)cc1 [Compound 161]
- CC50 at 48 h [1, 3]: > 100 µM
- CC50 at 48 h [2, 4]: > 100 µM
- Average Selectivity Index (HCT-116 cells): 1.0
- EC50 (HCT-116 cells; Homo sapiens, HCT-116, 48 h): > 100 µM

SMILES: CCN(CC)S(=O)(=O)c1cccc(C(=O)N/N=C/c2ccc([N+](=O)[O-])o2)c1 [Compound 129]
- EC50 (HT-29 cells): 4.2 µM
- CC50 at 48 h [1, 3]: 8.7 µM
- CC50 at 48 h [2, 4]: > 100 µM
- EC50 (DLD-1 cells): 8.9 µM
- Average Selectivity Index (HCT-116 cells): 12.0
- EC50 (HCT-116 cells; Homo sapiens, HCT-116, 48 h): 7.8 µM

SMILES: O=C(N/N=C/c1ccc([N+](=O)[O-])o1)c1ccncc1 [Compound 123]
- CC50 at 48 h [1, 3]: 75 µM
- CC50 at 48 h [2, 4]: 70 µM
- Average Selectivity Index (HCT-116 cells): 2.6
- EC50 (HCT-116 cells; Homo sapiens, HCT-116, 48 h): 28 µM

SMILES: O=C(N/N=C/c1ccc([N+](=O)[O-])o1)c1ccccc1Oc1ccccc1 [Compound 127]
- CC50 at 48 h [1, 3]: 55 µM
- CC50 at 48 h [2, 4]: 49 µM
- EC50 (DLD-1 cells): 26 µM
- EC50 (HCT-116 cells; Homo sapiens, HCT-116, 48 h): 11 µM

SMILES: O=C(N/N=C/c1ccc(O)c2ncccc12)c1ccncc1 [Compound 138]
- CC50 at 48 h [1, 3]: 69 µM
- CC50 at 48 h [2, 4]: > 100 µM
- Average Selectivity Index (HCT-116 cells): 1.8
- EC50 (HCT-116 cells; Homo sapiens, HCT-116, 48 h): 48 µM

SMILES: CC1CS(=O)(=O)CCN1/N=C/c1ccc([N+](=O)[O-])o1 (centres unmarked) [Nifurtimox (Nfx - 106), Nifurtimox, reference compound]
- CC50 at 48 h [1, 3]: > 100 µM
- CC50 at 48 h [2, 4]: > 100 µM
- Average Selectivity Index (HCT-116 cells): 1.0
- EC50 (HCT-116 cells; Homo sapiens, HCT-116, 48 h): > 100 µM

SMILES: CN(C)c1ccc(C(=O)N/N=C/c2ccc(O)c3ncccc23)cc1 [Compound 140]
- EC50 (HT-29 cells): 2.4 µM
- CC50 at 48 h [1, 3]: 42 µM
- CC50 at 48 h [2, 4]: 35 µM
- Average Selectivity Index (HCT-116 cells): 8.8
- EC50 (HCT-116 cells; Homo sapiens, HCT-116, 48 h): 4.4 µM

SMILES: COc1cc(NC(C)CCCN)c2ncccc2c1 (centres unmarked) [Compound 71, Primaquine, reference compound]
- CC50 at 48 h [1, 3]: 56.6 µM
- CC50 at 48 h [2, 4]: 77.4 µM

SMILES: COc1ccc(C(=O)N/N=C/c2ccco2)cc1 [Compound 158]
- CC50 at 48 h [1, 3]: > 100 µM
- CC50 at 48 h [2, 4]: > 100 µM
- Average Selectivity Index (HCT-116 cells): 1.0
- EC50 (HCT-116 cells; Homo sapiens, HCT-116, 48 h): > 100 µM

SMILES: O=Cc1ccc(O)c2ncccc12 [Compound 159]
- CC50 at 48 h [1, 3]: 15 µM
- CC50 at 48 h [2, 4]: 4.4 µM
- Average Selectivity Index (HCT-116 cells): 1.6
- EC50 (HCT-116 cells; Homo sapiens, HCT-116, 48 h): 6.2 µM

SMILES: O=C1CN(/N=C/c2ccc([N+](=O)[O-])o2)C(=O)N1 [Nitrofurantoin (Nft), Nitrofurantoin, reference compound]
- CC50 at 48 h [1, 3]: > 100 µM
- CC50 at 48 h [2, 4]: > 100 µM
- Average Selectivity Index (HCT-116 cells): 1.1
- EC50 (HCT-116 cells; Homo sapiens, HCT-116, 48 h): 95 µM

SMILES: O=[N+]([O-])c1ccc(O)c2ncccc12 [Nitroxoline, reference compound]
- CC50 at 48 h [1, 3]: 41 µM
- CC50 at 48 h [2, 4]: 28 µM
- Average Selectivity Index (HCT-116 cells): 1.6
- EC50 (HCT-116 cells; Homo sapiens, HCT-116, 48 h): 22 µM

Reference: patent US20250319056A1, “METHODS FOR TREATING CANCER” (THE TRUSTEES OF INDIANA UNIVERSITY, priority 2024, published 2025)
